Assay [1] concerns the target T1, human GHS receptor (Homo sapiens, UniProt Q92847). Nature of the assay: Ghrelin IP1 agonist assay (IP1 HTRF). The class given is cell-based. The note with it: for Emax: 2 h, agonist effect as % maximal effect of GHRP-6 (5 μM), read-out: h IP1 ag %; for EC50: HEK293s cells stably expressing human GHS receptor, 2 hours at 37° C., read-out: h IP1 ag EC50. Also on record: expressed in transfected cells; host or cells: HEK293s. The method in brief:
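Cells: HEK293s stably expressing human GHS receptor, in stimulation buffer containing 0.02% fatty acid free BSA.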

The target of assay [2] is T1, human GHS receptor. The assay can be described thus: h bind IC50 (binding assay, Table 1). The note with it: human receptor; Table 1.

A value given as a limit tells only on which side of the number the result lay.

A word on the EC50: it is the concentration that produces a half-maximal response. Broadly, the IC50 is the concentration that inhibits the measured activity by half. Read a high IC50 as weaker potency.

T1 sequence (Q92847 whole entry): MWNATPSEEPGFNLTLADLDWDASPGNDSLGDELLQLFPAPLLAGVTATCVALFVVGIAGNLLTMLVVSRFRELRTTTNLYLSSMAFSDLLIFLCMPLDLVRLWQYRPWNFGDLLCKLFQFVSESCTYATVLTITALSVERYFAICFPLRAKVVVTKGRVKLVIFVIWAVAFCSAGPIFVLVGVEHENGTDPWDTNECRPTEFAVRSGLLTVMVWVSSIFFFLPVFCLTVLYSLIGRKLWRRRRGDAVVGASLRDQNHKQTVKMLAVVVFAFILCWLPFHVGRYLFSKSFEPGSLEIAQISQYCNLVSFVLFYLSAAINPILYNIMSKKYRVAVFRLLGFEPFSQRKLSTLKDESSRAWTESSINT

Turning to `O=C(NC(=O)c1ccccc1Cl)Nc1nc2ccc(S(=O)(=O)NCCO)cc2s1` [Example 231, 2-chloro-N-[[6-(2-hydroxyethyl-sulfamoyl)-1,3-benzothiazol-2-yl]carbamoyl] benzamide], on human GHS receptor [1], the Emax amounted to 15.7% and the EC50 came to 72.1 nM. Also, the IC50 at human GHS receptor [2] stood at 67.3 nM.
In the case of `CS(=O)(=O)c1ccc2nc(NC(=O)NC(=O)c3cc(N4CCOCC4)ccc3Cl)sc2c1` [Example 54, 2-Chloro-N-(6-(methylsulfonyl)benzothiazol-2-ylcarbamoyl)-5-morpholin-4-yl benzamide], on human GHS receptor [1], the Emax is 0.0527% and the EC50 is at least 25000 nM. On human GHS receptor [2], this compound registered an IC50 of 10.1 nM.
As for `CS(=O)(=O)c1ccc2nc(NC(=O)NC(=O)c3ccccc3C(F)(F)F)sc2c1` [Example 170, N-[(6-Methylsulfonylbenzothiazol-2-yl)carbamoyl]-2-(trifluoromethyl)benzamide], on human GHS receptor [1], the Emax is 9.73% and the half-maximal effective concentration (EC50) came to 75.7 nM. On human GHS receptor [2], this compound had an IC50 of 831 nM.
The matching figures for `CS(=O)(=O)c1ccc(C(=O)NC(=O)Nc2nc3ccc(S(C)(=O)=O)cc3s2)c(Cl)c1` [Example 113, 2-Chloro-4-methylsulfonyl-N-[(6-methylsulfonylbenzothiazol-2-yl)carbamoyl]benzamide]: 10.8%, 1290 nM and 1660 nM.
Take `O=C(NC(=O)c1ccccc1Cl)Nc1nc2ccc(S(=O)(=O)CCNCCO)cc2s1` [Example 14, 2-Chloro-N-[[6-[2-(2-hydroxyethylamino)ethylsulfonyl]benzothiazol-2-yl]carbamoyl]benzamide]: at human GHS receptor [1], the Emax is 47.6% and the EC50 turned out to be 166 nM. In addition, the IC50 on human GHS receptor [2] came out at 321 nM.
Take `CS(=O)(=O)c1ccc2nc(NC(=O)NC(=O)c3cc(-n4cccc4)ccc3Cl)sc2c1` [Example 66, 2-Chloro-N-[(6-methylsulfonylbenzothiazol-2-yl)carbamoyl]-5-pyrrol-1-yl-benzamide]: at human GHS receptor [1], the Emax amounted to 0% and the EC50 is at least 25000 nM. In addition, at human GHS receptor [2], the IC50 was 23.1 nM.
Regarding `CS(=O)(=O)c1ccc2nc(NC(=O)NC(=O)c3ccc(-n4cccn4)cc3Cl)sc2c1` [Example 116, 2-Chloro-N-[(6-methylsulfonylbenzothiazol-2-yl)carbamoyl]-4-pyrazol-1-yl-benzamide], on human GHS receptor [1], the Emax is 45.1% and the 50% effective concentration (EC50) worked out at 400 nM. On human GHS receptor [2], the IC50 is 36 nM.
Regarding `COc1ccc(-c2ccccc2C(=O)NC(=O)Nc2nc3ccc(S(C)(=O)=O)cc3s2)cc1` [Example 124, 2-(4-Methoxyphenyl)-N-[(6-methylsulfonylbenzothiazol-2-yl)carbamoyl]benzamide], on human GHS receptor [1], the Emax worked out at 54.5% and the EC50 is 524 nM. Besides, at human GHS receptor [2], the 50% inhibitory concentration (IC50) came out at 135 nM.
For `CS(=O)(=O)c1ccc2nc(NC(=O)NC(=O)c3ccc(N4CCOCC4)cc3Cl)sc2c1` [Example 115, 2-Chloro-N-[(6-methylsulfonylbenzothiazol-2-yl)carbamoyl]-4-morpholin-4-yl-benzamide], on human GHS receptor [1], the Emax is 9.95% and the EC50 was found to be 2030 nM. Besides, on human GHS receptor [2], the IC50 was 63.4 nM.
`Cc1ccc(C)n1-c1ccc(C(=O)NC(=O)Nc2nc3ccc(S(C)(=O)=O)cc3s2)c(Cl)c1` [Example 119, 2-Chloro-4-(2,5-dimethylpyrrol-1-yl)-N-[(6-methylsulfonylbenzothiazol-2-yl)carbamoyl]benzamide]: at human GHS receptor [1], the Emax amounted to 9.26% and the EC50 was determined as 15700 nM. In addition, on human GHS receptor [2], the IC50 was 24.3 nM.
As to `O=C(NC(=O)c1ccccc1Cl)Nc1nc2ccc(S(=O)(=O)CCNC3CCC3)cc2s1` [Example 25, 2-Chloro-N-[[6-[2-(cyclobutylamino)ethylsulfonyl]benzothiazol-2-yl]carbamoyl]benzamide], on human GHS receptor [1], the Emax amounted to 34.7% and the EC50 was found to be 13.8 nM. Moreover, the IC50 on human GHS receptor [2] is 189 nM.
Turning to `CC(C)(C)OC(=O)N1CCN(c2ccc(Cl)c(C(=O)NC(=O)Nc3nc4ccc(S(C)(=O)=O)cc4s3)c2)CC1` [Example 234, tert-butyl 4-(4-chloro-3-(6-(methylsulfonyl)benzo[d]thiazol-2-ylcarbamoyl-carbamoyl)phenyl) piperazine-1-carboxylate], on human GHS receptor [1], the Emax came out at 6.73% and the concentration giving a half-maximal response (EC50) is at least 20000 nM. This compound also showed an IC50 at human GHS receptor [2] of 3.82 nM.
Take `CS(=O)(=O)c1ccc2nc(NC(=O)NC(=O)c3cc([N+](=O)[O-])ccc3Cl)sc2c1` [Example 70, 2-Chloro-N-(6-(methylsulfonyl)benzothiazol-2-ylcarbamoyl)-5-nitrobenzamide]: at human GHS receptor [1], the Emax came to 0.5% and the EC50 was 389 nM. For the same compound, the IC50 on human GHS receptor [2] stood at 141 nM.
Take `CSc1ccccc1C(=O)NC(=O)Nc1nc2ccc(S(C)(=O)=O)cc2s1` [Example 132, 2-Methylsulfanyl-N-[(6-methylsulfonylbenzothiazol-2-yl)carbamoyl]benzamide]: on human GHS receptor [1], the Emax is 15.5% and the half-maximal effective concentration (EC50) is 3680 nM. The IC50 at human GHS receptor [2] was 653 nM.
Regarding `C[C@@H]1CN(CCCS(=O)(=O)c2ccc3nc(NC(=O)NC(=O)c4ccccc4Cl)sc3c2)C[C@H](C)N1` [Example 196, 2-Chloro-N-[[6-[3-[(3S,5R)-3,5-dimethylpiperazin-1-yl]propylsulfonyl]benzothiazol-2-yl]carbamoyl]benzamide], at human GHS receptor [1], the Emax is 79.4% and the EC50 is 0.934 nM. For the same compound, the IC50 at human GHS receptor [2] was 1.5 nM.
The matching figures for `O=C(NC(=O)c1cc(-n2cccc2)ccc1Cl)Nc1nc2ccc(S(=O)(=O)CCN3CCNCC3)cc2s1` [Example 79, 2-Chloro-N-[[6-(2-piperazin-1-ylethylsulfonyl)benzothiazol-2-yl]carbamoyl]-5-pyrrol-1-yl-benzamide]: 1.95%, at least 25000 nM and 0.6 nM.
On to `O=C(NC(=O)c1ccccc1Cl)Nc1nc2ccc(S(=O)(=O)CCN3CCOCC3)cc2s1` [Example 1, 2-Chloro-N-[[6-(2-morpholin-4-ylethylsulfonyl)benzothiazol-2-yl]carbamoyl]benzamide], for which, at human GHS receptor [1], the Emax was 24% and the EC50 turned out to be 29.2 nM. The IC50 on human GHS receptor [2] is 64.4 nM.

The record behind these values is patent US20120115845A1, “THERAPEUTIC AGENTS” (priority 2007, published 2012).
